Measurements from US7754722B2, “Piperazine derivatives and methods of use” (Merck Serono SA, priority 2002, dated 2010).

Biological target: T1, FSH receptor (Homo sapiens, UniProt P23945)
T1 construct: expressed in transfected cells; host or cells: CHO (Chinese Hamster Ovary) cells, stably transfected, carrying a cAMP response element-luciferase reporter
T1 sequence (P23945 18-695): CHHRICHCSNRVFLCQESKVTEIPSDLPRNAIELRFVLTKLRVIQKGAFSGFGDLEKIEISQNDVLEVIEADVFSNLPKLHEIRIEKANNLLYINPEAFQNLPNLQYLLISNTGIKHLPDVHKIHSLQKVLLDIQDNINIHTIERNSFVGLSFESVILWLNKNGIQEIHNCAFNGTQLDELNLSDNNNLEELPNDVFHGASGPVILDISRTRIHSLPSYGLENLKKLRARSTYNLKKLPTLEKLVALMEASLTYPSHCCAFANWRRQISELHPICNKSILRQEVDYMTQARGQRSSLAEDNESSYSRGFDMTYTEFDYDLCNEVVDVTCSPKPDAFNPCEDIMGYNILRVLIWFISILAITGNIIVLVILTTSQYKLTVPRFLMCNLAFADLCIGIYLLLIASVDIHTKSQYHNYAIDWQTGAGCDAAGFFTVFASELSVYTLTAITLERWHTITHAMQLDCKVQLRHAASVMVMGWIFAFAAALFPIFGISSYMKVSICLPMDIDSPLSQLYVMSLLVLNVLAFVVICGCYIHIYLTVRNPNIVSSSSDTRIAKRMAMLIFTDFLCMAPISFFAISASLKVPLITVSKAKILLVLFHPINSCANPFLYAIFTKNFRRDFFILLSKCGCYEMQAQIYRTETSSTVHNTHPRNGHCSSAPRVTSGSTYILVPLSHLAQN
Assay: FSH assay: cAMP response element luciferase reporter in CHO cells expressing recombinant FSH receptor
Assay type: cell-based
Details: agonist activity; CHO cells stably transfected with recombinant FSH receptor; luciferase luminescence; log-dose-response curves; incubation 37° C. for 3 hrs 30 min; read-out: ED50 (the source's name)
Experimental: Compounds of the invention were tested in the following assay.
All compounds of the invention were stored in 96-well deepwell plates in DMSO at a nominal concentration of 10 μM. Compounds of the invention were screened for agonist activity at the FSH receptor using the recombinant FSH receptor stably transfected and expressed in Chinese Hamster Ovary Cells (CHO cells) essentially as described in the work by Kelton, et al. Molecular and Cellular Endocrinology, 1992, 89, 141-151). […] Thus an agonist at the FSH receptor increases cAMP in the cell which results in activation of the CREB (cAMP) response element binding protein). The substrate for the enzyme (Packard Instrument Company 800 Research Parkway, Meriden, Conn. 06450, USA) was added to the cells after appropriate incubation with the compounds or FSH and the amount of luciferase expressed was measured by quantitating the luminescence produced by the enzyme using a TopCount scintillation/luminescence counter running in single photon counting mode. A compound which acts as an agonist at the receptor should produce light from the treated cells in proportion to its concentration within the incubation. Luminescence should be saturable at high concentrations of the compound.
The compounds of the invention, in deepwell plates (Master plates) as indicated above were loaded on the robotic deck along with the appropriate number of assay plates and daughter plates. A 10 μl aliquot from each master plate was transferred to the corresponding daughter plate and 90 μl of DME/F12 was added and mixed within each well. 20 μl was then removed from the daughter plate and dispensed into the assay plate. After addition of an aliquot of FSH (equivalent to an EC100 response for this hormone to each of three wells on the plate, 80 μl of media (DME/F 12±2% serum) and 100 μl aliquot of cells (4×10^5/ml in the same media) were added and the plate incubated at 37° C. for 3 hrs 30 min. At this time the plate was removed from the incubator and media in each well was aspirated and the cells adhering to the bottom of the plate washed with 300 μl PBS containing 1 mM Ca^2+ and 1 mM Mg^2+. The PBS was aspirated and 100 μl PBS added to each well. 100 μl of Lucite (prepared as described by the manufacturer) was added to each well and the plate was shaken gently for 40 seconds prior to placement in the TopCount plate reader. After allowing 3.5 minutes for the plate to dark-adapt within the machine, the amount of luminescence generated was quantitated using Single Photon Counting mode. The data was transmitted electronically from the TopCount to the robot processing computer terminal and was renamed with an ID corresponding to the original master plate ID. […] LDR (log-dose-response) curves were generated for these compounds in CHO cells containing the FSH receptor and these curves were also compared with those in either cells expressing a different Gs linked receptor or in cells lacking any transfected receptor.

| Structure (SMILES) | EC50 |
| --- | --- |
| CCOC(=O)CN1CCN(S(=O)(=O)c2cccs2)[C@H](C(=O)Nc2ccc3c(c2)c2ccccc2n3CC)C1 [3-(9-ethyl-9H-carbazol-3-ylcarbamoyl)-4-(thiophene-2-sulfonyl)-piperazin-1-yl] acetic acid ethyl ester] | 610 nM |
| CCCCCCCCN1CCN(S(=O)(=O)c2cccs2)[C@H](C(=O)Nc2ccc3c(c2)nc(-c2ccncc2)n3CC)C1 [4-octyl-1-(thiophene-2-sulfonyl)-piperazine-2-carboxylic acid (1-ethyl-2-pyridin-4-yl-1H-benzoimidazol-5-yl)amide] | 54 nM |
| CCCCCCCN1CCN(S(=O)(=O)c2cccs2)[C@H](C(=O)Nc2ccc3c(c2)nc(-c2cccnc2)n3CC)C1 [4-heptyl-1-(thiophene-2-sulfonyl)-piperazine-2-carboxylic acid (1-ethyl-2-pyridin-3-yl-1H-benzoimidazol-5-yl)-amide] | 94 nM |

More lines, in order of falling EC50, values ahead:

| EC50 | Structure (SMILES) |
| --- | --- |
| 14000 nM | CCn1c(-c2ccncc2)nc2cc(NC(=O)[C@@H]3CN(CCCSC)CCN3S(=O)(=O)c3cccs3)ccc21 [4-(3-methylsulfanyl-propyl)-1-(thiophene-2-sulfonyl)-piperazine-2-carboxylic acid (1-ethyl-2-pyridin-4-yl-1H-benzoimidazol-5-yl)amide] |
| 403 nM | CCCCCNC(=O)N1CCN(S(=O)(=O)N(C)C)[C@H](C(=O)Nc2ccc3c(c2)c2ccccc2n3CC)C1 [4-dimethylsulfamoyl-piperazine-1,3-dicarboxylic acid 3-[(9-ethyl-9H-carbazol-3-yl)-amide]1-pentylamide] |
| 170 nM | CCCCCCN1CCN(S(=O)(=O)CCCC)[C@H](C(=O)Nc2ccc3c(c2)nc(-c2cccnc2)n3CC)C1 [1-(butane-1-sulfonyl)-4-hexyl-piperazine-2-carboxylic acid (1-ethyl-2-pyridin-3-yl-1H-benzoimidazol-5-yl)amide] |
